Results reported in patent US20100081679A1, “DIAMINOPYRIMIDINES AS FUNGICIDES” (Bayer CropScience AG, priority 2007, published 2010).

Experiment: logP determination via retention times, calibrated with unbranched alkan-2-ones
Format: physicochemical
Settings: linear gradient 10% to 95% acetonitrile
[1] = method *: HPLC reversed-phase C18, 40° C., 0.1% aqueous formic acid and acetonitrile
[2] = method **: HPLC reversed-phase C 18, 43° C., 0.1% aqueous phosphoric acid and acetonitrile

| Compound | logP [1] | logP [2] |
| --- | --- | --- |
| COC(=O)Nc1ccc(Nc2ncc(Br)c(NC3CC3)n2)cc1Cl [compound 430] | 2.2* | – |
| CN(C)S(=O)(=O)Cc1cccc(Nc2ncc(Cl)c(NC3CC3)n2)c1 [compound 431] | 1.62* | – |
| O=C1CCCN1Cc1ccc(Nc2ncc(Cl)c(NC3CC3)n2)cc1 [compound 432] | 1.36* | – |
| O=C1CCCN1Cc1cccc(Nc2ncc(Cl)c(NC3CC3)n2)c1 [compound 433] | 1.45* | – |
| CC(=O)Nc1ccc(Nc2ncc(Cl)c(NC3CC3)n2)cc1.Cc1ccc(S(=O)(=O)O)cc1 [compound 434] | 1.02* | – |
| CC(C)CSc1cccc(Nc2ncc(Cl)c(NC3CC3)n2)c1 [compound 435] | 3.75* | – |
| CCSc1cccc(Nc2ncc(Cl)c(NC3CC3)n2)c1 [compound 436] | 2.72* | – |
| CCCSc1cccc(Nc2ncc(Cl)c(NC3CC3)n2)c1 [compound 437] | 3.33* | – |
| O=[N+]([O-])c1ccc(Nc2ncc(Cl)c(NC3CC3)n2)cc1 [compound 438] | – | 2.9** |
| N#Cc1cc(Nc2ncc(Cl)c(NC3CC3)n2)ccc1N1CCCC1 [compound 439] | – | 2.23** |
| CCSc1cccc(Nc2ncc(Cl)c(NC3CC3)n2)c1.Cc1ccc(S(=O)(=O)O)cc1 [compound 440] | 2.73* | – |
| CC(C)CCSc1cccc(Nc2ncc(Cl)c(NC3CC3)n2)c1.Cc1ccc(S(=O)(=O)O)cc1 [compound 441] | 4.24* | – |
| CCCCCCCCSc1cccc(Nc2ncc(Cl)c(NC3CC3)n2)c1.Cc1ccc(S(=O)(=O)O)cc1 [compound 442] | 6.16* | – |
| CCCCSc1cccc(Nc2ncc(Cl)c(NC3CC3)n2)c1.Cc1ccc(S(=O)(=O)O)cc1 [compound 443] | 3.79* | – |
| CC(C)COc1cccc(Nc2ncc(Cl)c(NC3CC3)n2)c1 [compound 444] | 3.17* | – |
| CC(C)COc1cccc(Nc2ncc(Br)c(NC3CC3)n2)c1 [compound 445] | 3.36* | – |
| COC(=O)Nc1ccc(Nc2ncc(C)c(NC3CC3)n2)cc1 [compound 446] | 1.06* | – |
| O=C1CCC(=O)N1c1cccc(Nc2ncc(Br)c(NC3CC3)n2)c1 [compound 447] | 1.38* | – |

| Compound | logP [1] | logP [2] |
| --- | --- | --- |
| CS(=O)(=O)c1ccc(Nc2ncc(Br)c(NCC3CC3)n2)cc1 [compound 448] | 2.09* | – |
| CN(C)S(=O)(=O)c1ccc(Nc2ncc(Br)c(NCC3CC3)n2)cc1 [compound 449] | 2.51* | – |
| CC(C)(C)C(=O)Nc1ccc(Nc2ncc(Br)c(NCC3CC3)n2)cc1 [compound 450] | 1.99* | – |
| CC(C)(C)C(=O)Nc1cccc(Nc2ncc(Br)c(NCC3CC3)n2)c1 [compound 451] | 2.06* | – |
| CN(C)C(=O)c1ccc(Nc2ncc(Br)c(NCC3CC3)n2)cc1 [compound 452] | 1.66*; | – |
| CSc1ccc(Nc2ncc(Br)c(NCC3CC3)n2)cc1 [compound 453] | 2.29* | – |
| O=S(=O)(c1cccc(Nc2ncc(Br)c(NCC3CC3)n2)c1)N1CCCCC1 [compound 454] | 2.29* | – |
| CC(C)(C)C(=O)Cc1ccc(Nc2ncc(Br)c(NCC3CC3)n2)cc1 [compound 455] | 2.48* | – |
| CC(=O)c1ccc(Nc2ncc(Br)c(NCC3CC3)n2)cc1 [compound 456] | 2.26* | – |
| O=C1CCCN1c1ccc(Nc2ncc(Br)c(NCC3CC3)n2)cc1 [compound 457] | 1.66*; | 1.59** |
| COC(=O)Nc1cccc(Nc2ncc(Br)c(NCC3CC3)n2)c1 [compound 458] | 1.73* | – |
| CSc1cc(Nc2ncc(Br)c(NCC3CC3)n2)ccc1C [compound 459] | 2.58* | – |
| CC(C)C(=O)Nc1cccc(Nc2ncc(Br)c(NCC3CC3)n2)c1 [compound 460] | 1.85* | – |
| CC(C)(C)NC(=O)c1cccc(Nc2ncc(Br)c(NCC3CC3)n2)c1 [compound 461] | 2.16* | – |
| FC(F)C(F)(F)Oc1ccc(Nc2ncc(Br)c(NCC3CC3)n2)cc1 [compound 462] | 2.8* | – |
| CC(=O)c1cc(Nc2ncc(Br)c(NCC3CC3)n2)ccc1O [compound 463] | 1.92* | – |
| Oc1ccc(Nc2ncc(Br)c(NCC3CC3)n2)cc1F [compound 464] | 1.53* | – |
